Each block holds one compound with its values, some of them ahead of it. Active and inactive are the calls of the source.
Assays:
[1] = target: T1, Lysine-specific demethylase 4C (Homo sapiens, UniProt Q9H3R0); assay: inhibition of JMJD2C H3K9me3 demethylation – biochemical, DELFIA europium, cherry-picked samples, dose response (AID 488835); format: functional
T1 sequence (Q9H3R0 whole entry): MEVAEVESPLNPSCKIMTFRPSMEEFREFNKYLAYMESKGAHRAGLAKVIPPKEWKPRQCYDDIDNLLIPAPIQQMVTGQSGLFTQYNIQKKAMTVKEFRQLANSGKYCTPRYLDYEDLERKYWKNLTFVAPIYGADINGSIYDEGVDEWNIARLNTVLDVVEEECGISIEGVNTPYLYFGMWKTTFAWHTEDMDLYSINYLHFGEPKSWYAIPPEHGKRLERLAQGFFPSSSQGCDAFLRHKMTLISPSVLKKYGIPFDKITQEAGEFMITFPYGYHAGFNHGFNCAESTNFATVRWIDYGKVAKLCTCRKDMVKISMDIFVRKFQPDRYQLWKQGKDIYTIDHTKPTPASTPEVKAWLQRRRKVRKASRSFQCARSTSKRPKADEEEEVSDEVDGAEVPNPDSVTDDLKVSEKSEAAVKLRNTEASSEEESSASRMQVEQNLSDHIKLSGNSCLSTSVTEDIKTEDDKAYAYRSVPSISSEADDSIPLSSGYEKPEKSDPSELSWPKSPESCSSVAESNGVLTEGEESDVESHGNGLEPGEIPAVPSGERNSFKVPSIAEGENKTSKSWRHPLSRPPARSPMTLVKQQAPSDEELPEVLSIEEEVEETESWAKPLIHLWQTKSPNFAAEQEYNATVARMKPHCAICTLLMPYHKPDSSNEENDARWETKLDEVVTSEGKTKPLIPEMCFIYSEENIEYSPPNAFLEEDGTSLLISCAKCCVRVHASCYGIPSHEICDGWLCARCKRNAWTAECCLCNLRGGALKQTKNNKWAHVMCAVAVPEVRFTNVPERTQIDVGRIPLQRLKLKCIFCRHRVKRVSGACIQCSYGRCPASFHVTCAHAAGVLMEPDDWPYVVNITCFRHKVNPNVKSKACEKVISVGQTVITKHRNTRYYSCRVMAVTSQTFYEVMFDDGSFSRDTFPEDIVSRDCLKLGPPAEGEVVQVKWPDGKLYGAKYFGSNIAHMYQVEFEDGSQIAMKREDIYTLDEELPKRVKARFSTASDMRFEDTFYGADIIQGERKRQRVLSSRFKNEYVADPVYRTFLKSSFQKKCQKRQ

[2] = target: T2, Sphingosine 1-phosphate receptor 4 (Homo sapiens, UniProt O95977); assay: Fluorescence dose response cell-based high throughput screening assay for antagonists of the Sphingosine 1-Phosphate Receptor 4 (S1P4). [Related pubchem assays: 1524 (Confirmation in triplicates.), 1510 (Primary screen.)]; format: functional
T2 sequence (O95977 whole entry): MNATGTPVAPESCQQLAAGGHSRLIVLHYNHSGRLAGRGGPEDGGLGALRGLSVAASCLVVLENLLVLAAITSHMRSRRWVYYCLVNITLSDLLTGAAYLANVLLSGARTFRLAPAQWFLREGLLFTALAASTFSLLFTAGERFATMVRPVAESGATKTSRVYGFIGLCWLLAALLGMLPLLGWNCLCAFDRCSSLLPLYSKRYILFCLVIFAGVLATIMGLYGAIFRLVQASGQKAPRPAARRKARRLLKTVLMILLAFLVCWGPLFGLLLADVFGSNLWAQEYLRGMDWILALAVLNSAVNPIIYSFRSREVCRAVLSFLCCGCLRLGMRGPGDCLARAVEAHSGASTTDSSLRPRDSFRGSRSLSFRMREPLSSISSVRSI

[3] = viability loss in HeLa cells – cytotoxicity control for MgcRacGAP inhibitor project, dose response (AID 624300); format: functional
Fatty acid synthase = Fatty acid synthase (Homo sapiens, UniProt P49327); assay: inhibition of human FAS-TE enzyme activity – biochemical, kinetic fluorescence intensity, dose response (AID 624326); format: functional;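 note: rate of fluorescence rise from hydrolysis of a fluorogenic O-methyl fluorescein ester substrate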
Chain of Fatty acid synthase (P49327 whole entry): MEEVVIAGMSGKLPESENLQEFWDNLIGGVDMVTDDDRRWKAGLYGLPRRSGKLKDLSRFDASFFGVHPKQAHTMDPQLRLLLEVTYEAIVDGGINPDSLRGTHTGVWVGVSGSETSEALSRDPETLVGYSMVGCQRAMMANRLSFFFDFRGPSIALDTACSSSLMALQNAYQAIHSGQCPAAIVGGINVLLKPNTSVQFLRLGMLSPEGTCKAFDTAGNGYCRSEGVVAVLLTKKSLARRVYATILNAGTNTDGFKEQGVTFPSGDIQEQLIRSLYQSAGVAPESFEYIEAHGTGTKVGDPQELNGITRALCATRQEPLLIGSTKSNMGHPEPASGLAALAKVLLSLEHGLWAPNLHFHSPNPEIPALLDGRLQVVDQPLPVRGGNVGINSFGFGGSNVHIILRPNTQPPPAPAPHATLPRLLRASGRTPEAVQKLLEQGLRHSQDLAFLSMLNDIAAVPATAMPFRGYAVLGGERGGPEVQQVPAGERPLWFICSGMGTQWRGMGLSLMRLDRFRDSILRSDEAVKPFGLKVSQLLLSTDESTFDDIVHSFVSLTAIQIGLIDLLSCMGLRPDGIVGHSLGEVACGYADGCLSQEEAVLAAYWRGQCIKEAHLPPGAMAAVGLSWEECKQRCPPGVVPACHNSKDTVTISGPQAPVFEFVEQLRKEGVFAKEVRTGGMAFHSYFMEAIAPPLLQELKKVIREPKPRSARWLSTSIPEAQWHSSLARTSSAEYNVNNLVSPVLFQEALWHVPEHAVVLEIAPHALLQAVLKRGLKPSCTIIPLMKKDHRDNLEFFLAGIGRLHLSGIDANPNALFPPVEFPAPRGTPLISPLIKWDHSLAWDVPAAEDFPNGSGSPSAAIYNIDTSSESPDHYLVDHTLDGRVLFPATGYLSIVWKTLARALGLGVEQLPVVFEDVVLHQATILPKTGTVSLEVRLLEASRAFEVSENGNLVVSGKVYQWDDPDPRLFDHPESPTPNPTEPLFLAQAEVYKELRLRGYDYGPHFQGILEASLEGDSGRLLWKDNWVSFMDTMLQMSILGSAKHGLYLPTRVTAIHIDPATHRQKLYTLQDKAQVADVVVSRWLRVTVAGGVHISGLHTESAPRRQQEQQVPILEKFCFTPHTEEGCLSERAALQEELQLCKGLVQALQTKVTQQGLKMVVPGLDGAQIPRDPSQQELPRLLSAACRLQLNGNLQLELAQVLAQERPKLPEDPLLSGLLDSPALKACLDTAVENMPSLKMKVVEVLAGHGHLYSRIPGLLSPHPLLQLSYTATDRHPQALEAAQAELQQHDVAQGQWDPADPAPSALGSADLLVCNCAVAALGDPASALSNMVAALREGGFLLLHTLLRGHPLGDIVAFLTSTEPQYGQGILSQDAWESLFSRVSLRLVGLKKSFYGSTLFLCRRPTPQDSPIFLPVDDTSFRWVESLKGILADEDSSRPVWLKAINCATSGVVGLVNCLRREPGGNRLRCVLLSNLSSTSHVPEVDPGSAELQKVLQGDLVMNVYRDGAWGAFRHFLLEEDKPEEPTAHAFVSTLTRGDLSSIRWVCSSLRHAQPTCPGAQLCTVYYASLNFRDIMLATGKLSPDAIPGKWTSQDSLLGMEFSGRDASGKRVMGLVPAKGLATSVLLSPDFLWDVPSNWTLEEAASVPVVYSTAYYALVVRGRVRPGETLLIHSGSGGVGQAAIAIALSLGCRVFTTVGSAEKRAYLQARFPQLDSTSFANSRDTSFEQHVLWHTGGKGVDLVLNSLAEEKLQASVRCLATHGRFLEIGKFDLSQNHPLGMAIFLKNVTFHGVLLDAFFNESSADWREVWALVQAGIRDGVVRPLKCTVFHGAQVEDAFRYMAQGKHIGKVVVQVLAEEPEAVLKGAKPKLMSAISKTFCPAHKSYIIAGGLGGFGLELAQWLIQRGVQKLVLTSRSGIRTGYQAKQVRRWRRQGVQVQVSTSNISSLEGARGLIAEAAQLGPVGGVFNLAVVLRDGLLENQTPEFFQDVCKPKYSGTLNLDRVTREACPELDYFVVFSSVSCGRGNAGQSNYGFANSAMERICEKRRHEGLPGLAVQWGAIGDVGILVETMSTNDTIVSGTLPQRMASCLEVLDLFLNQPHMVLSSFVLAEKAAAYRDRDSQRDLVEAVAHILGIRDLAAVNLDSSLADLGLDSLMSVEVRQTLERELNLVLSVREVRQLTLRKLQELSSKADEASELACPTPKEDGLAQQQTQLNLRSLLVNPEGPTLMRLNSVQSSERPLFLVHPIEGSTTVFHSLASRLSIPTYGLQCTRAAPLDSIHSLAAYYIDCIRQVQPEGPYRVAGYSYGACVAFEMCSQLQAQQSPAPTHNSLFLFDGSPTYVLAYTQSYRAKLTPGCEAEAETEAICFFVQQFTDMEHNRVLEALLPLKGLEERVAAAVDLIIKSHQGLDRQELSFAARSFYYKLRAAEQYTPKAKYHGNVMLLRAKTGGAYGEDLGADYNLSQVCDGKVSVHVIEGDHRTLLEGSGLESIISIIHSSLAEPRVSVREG

[4] = target: T3, Heat shock factor protein 1 (Mus musculus, UniProt P38532); assay: enhancement of HSF1-driven luciferase signal – cell-based, NIH3T3, luminescence, dose retest, confirmation (AID 435004); format: functional;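 note: stress induced by proteasome inhibitor MG132 added 30 min after compound; luciferase reporter driven by HSF1 response element in NIH3T3 cells; actives raise luminescence as potentiators of the MG132 stress response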
T3 sequence (P38532 whole entry): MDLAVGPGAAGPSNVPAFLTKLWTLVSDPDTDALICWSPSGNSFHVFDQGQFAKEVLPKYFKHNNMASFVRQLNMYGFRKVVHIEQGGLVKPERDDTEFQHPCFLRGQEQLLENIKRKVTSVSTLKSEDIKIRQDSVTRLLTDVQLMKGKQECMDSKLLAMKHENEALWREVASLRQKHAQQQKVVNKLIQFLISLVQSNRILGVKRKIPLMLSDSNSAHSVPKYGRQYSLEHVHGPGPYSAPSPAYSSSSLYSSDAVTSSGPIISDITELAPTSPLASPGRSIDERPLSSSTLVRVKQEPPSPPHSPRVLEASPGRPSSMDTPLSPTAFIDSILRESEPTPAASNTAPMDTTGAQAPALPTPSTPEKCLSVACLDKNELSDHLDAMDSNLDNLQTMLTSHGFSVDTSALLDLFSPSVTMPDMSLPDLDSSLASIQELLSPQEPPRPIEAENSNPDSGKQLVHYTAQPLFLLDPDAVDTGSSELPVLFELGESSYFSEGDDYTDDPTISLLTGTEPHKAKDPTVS

Protein skinhead-1 = target: T4, Protein skinhead-1 (Caenorhabditis elegans, UniProt P34707); format: functional
T4 sequence (P34707 whole entry): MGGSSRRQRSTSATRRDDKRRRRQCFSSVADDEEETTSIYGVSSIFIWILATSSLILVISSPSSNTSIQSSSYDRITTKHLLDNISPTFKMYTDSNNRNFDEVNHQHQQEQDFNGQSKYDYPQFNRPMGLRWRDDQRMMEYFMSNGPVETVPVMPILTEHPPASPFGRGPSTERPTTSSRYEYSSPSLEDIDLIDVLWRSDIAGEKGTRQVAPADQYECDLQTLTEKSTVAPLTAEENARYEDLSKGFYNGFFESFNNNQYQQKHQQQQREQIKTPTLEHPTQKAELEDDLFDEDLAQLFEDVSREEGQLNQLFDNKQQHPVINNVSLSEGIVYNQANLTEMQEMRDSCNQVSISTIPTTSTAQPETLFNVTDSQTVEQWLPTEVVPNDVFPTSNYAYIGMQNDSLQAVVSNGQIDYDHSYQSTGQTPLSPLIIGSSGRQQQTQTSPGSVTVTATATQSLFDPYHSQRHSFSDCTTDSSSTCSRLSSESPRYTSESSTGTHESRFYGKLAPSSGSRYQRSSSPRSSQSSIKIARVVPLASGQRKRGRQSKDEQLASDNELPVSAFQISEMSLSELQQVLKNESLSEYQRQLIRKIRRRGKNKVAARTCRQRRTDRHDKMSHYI

[5] = general mammalian cell viability loss – activator set, cherry-pick, cytotoxicity control for miR-122 modulator project, dose response (AID 720690); format: functional, cell-based;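 note: HEK293T human cells scored for general mammalian cytotoxicity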
HEK293 = assay: cells; format: functional, cell-based; conditions: Homo sapiens

AC50 [1]: 30.4 µM (active)
SMILES: O=C1NC(=S)N/C1=C/c1cc2c(cc1[N+](=O)[O-])OCO2

SMILES: Cc1ccc(NC(=O)C2=C(c3ccccc3)S(=O)(=O)CCS2(=O)=O)cc1
IC50 [2]: 1.04 µM (active)
CC50 [3]: 100 µM (active)
IC50 (Fatty acid synthase): 1.61 µM (active)

SMILES: O=C(O)CSc1cc(NS(=O)(=O)c2ccc(Br)cc2)c2ccccc2c1O
EC50 [4]: > 260 µM (inactive)

SMILES: O=C(CC(O)(C(F)(F)F)C(F)(F)F)Nc1ccc(Cl)c(Cl)c1
IC50 (Protein skinhead-1): 19.6 µM (active)
AC50 [5]: 2.27 µM (active)

SMILES: O=C(CNc1cccc2ccccc12)N/N=C/c1ccc([N+](=O)[O-])o1
IC50 (HEK293): 15.8 µM (active)

Source: ChEMBL document CHEMBL1201862, “PubChem BioAssay data set” (2004)
